The numbers were not newly measured in article PMC7455853 (European Journal of Medicinal Chemistry, 2020), which cites them from elsewhere.

Counter-ions that a name gives are not always drawn. Where only a bound is given, the exact number is not on record here.

Series [1] has as its system tubulin (colchicine binding). The settings on record: at 5 μM.
The subject of series [2] is SrtA.
Series [3] relates to AURKA.
The subject of series [4] is EGFR.
Series [5] relates to NF–Y binding to the ICB2. Particulars: EMSA. On the technique in general: Mobility shift assays separate free from complexed probe on a gel.
The subject of series [6] is ICB2 site.
Series [7] concerns HIF-1. The settings on record: read-out: HIF-1 inhibitory activity IC50; HeLa cells.

For the molecule `COc1ccc(/C=C\c2cc(OC)c(OC)c(OC)c2)cc1O` [CA-4, combretastatin A-4], the “inhibition of colchicine binding” value in series [1] was 98%.
In general, IC50 refers to the concentration that inhibits the measured activity by half. Take `COc1ccc2cc3[n+](cc2c1OC)CCc1cc2c(cc1-3)OCO2` [berberine hydrochloride]: the IC50 in series [2] was 120 µM.
For `Brc1cccc(Nc2ncnc3[nH]ccc23)c1` [compound 8], the figures for the half-inhibitory concentration (IC50) in series [3] and in series [4] were 1990 nM and 3.76 nM, respectively.
In the case of `COc1ccc(-c2nc3ccc(C(=O)Nc4cn(C)c(C(=O)Nc5cc(C(=O)NCCCN(C)C)n(CCCN)c5)n4)cc3[nH]2)cc1` [compound 19a], the “doses giving dose-dependent inhibition of NF–Y binding to the ICB2” value in series [5] is at least 3 µM. Besides, in series [6], the DNA binding affinity is 0.5 µM.
For the molecule `O=C(Cc1ccc(O)cc1)n1cc(-c2ccc(O)cc2)c(-c2ccc(O)cc2)c1` [neolamellarin A], the half-maximal inhibitory concentration (IC50) in series [7] was 10.8 µM.
